Measured values published in ChEMBL document CHEMBL1156829 (Proc Natl Acad Sci U S A, 2008).
pEC50: −log10 of the molar value.

How the values were obtained:
[1] = tested on: Plasmodium falciparum; test: NOVARTIS: Inhibition of Plasmodium falciparum 3D7 (drug-susceptible) proliferation in erythrocyte-based infection assay; type: functional, organism-based; conditions: Plasmodium falciparum, 3D7
[2] = NOVARTIS: Cytotoxicity against human hepatocellular carcinoma cell line (Huh7); type: toxicity, cell-based, Huh-7; conditions: Huh7 cells (hepatocellular carcinoma cell line)
[3] = tested on: Plasmodium falciparum; test: NOVARTIS: Inhibition of Plasmodium falciparum W2 (drug-resistant) proliferation in erythrocyte-based infection assay; type: functional, organism-based; conditions: Plasmodium falciparum, W2; read-out: EC50

Compound	pEC50 [1]	CC50 [2] [nM]	pEC50 [3]
COc1ccc2nc(NC(=N)N)nc(C)c2c1	6.15	57500	6.06
O=C(Nc1ccc(C(F)(F)F)cc1)c1ccc(NCCCN2CCCCCC2)c([N+](=O)[O-])c1	6.92	21200	6.48
COc1cccc(Nc2nc(NCCO)c3ccccc3n2)c1	6.94	21100	6.51
CC(Oc1ccc(Cl)cc1Cl)c1nc(-c2ccc(NC(=O)c3ccco3)cc2)no1 (stereo unspecified)	6.50	35600	6.26
COc1ccc(C2=C(c3ccc(OC)cc3)C3(c4ccccc4)C(=O)C2(c2ccccc2)C2C(=O)N(c4ccc(C)cc4)C(=O)C23)cc1 (stereo unspecified)	< 4.90	> 100000	5.83
O=C1c2cccc(N3CCCC(C(=O)N4CCCCC4c4cccnc4)C3)c2C(=O)N1Cc1ccc(C(F)(F)F)cc1 (stereo unspecified)	5.47	> 100000	5.82
Cc1ccc(C2CC3=Nc4ccccc4N(C(=O)C(F)(F)F)C(c4ccc(OCc5ccccc5)cc4)C3=C(O)C2)cc1 (stereo unspecified)	5.78	> 100000	5.81
CC(C)Cc1ccc(C=CC(=O)NC2CC2)cc1	5.94	> 100000	5.83
CCCCOc1ccc(C(O)C(CN2CCCCC2)c2ccccc2)cc1 (stereo unspecified)	6.08	39300	6.23
CC(C)OC(=O)c1cccnc1SCC(=O)Nc1ccc(C(F)(F)F)cc1Cl	5.26	> 100000	5.82
Cc1c(NC(=O)C2c3ccccc3C(=O)N3CCc4ccccc4C23)cccc1[N+](=O)[O-] (stereo unspecified)	5.39	> 100000	5.82
CCN(CC)CCNc1nc(/C=C/c2ccc(Cl)cc2)nc2cc3ccccc3cc12	6.91	5930	7.05
O=C(NCc1ccccc1C(F)(F)F)C1CC(O)CN1C(=O)Nc1ccccc1 (stereo unspecified)	< 5.90	> 10000	6.82
CN(CCCNc1ccnc2cc(Cl)ccc12)C(=O)CCc1ccccc1	6.87	> 12100	6.73
Cc1nc2cc(-c3ccc(I)cc3)nn2c(O)c1C	5.38	> 100000	5.81
CCCCC(=O)N(C)CCCNc1ccnc2cc(Cl)ccc12	6.91	> 10000	6.81
CC1(C)C(=O)C2(CCCCC2)C(=O)OC1C=Cc1ccccc1 (stereo unspecified)	< 4.90	> 100000	5.81
O=C1CC(N2CCCCCC2)C(=O)N1c1ccc(N2C(=O)CC(N3CCCCCC3)C2=O)cc1 (stereo unspecified)	< 5.90	> 10000	< 6.81
C(=Nc1cnc2ccccc2c1)c1c2n(c3ccccc13)CCCN2	6.18	> 100000	5.82
C=CCCC(=O)N1CCC(C(=O)Nc2ccc(-c3nc4ccccc4o3)cc2)CC1	5.27	> 100000	5.82
CC(NC(=O)c1cnn2c(C(F)(F)F)cc(-c3ccc(Br)cc3)nc12)c1ccccc1 (stereo unspecified)	< 4.97	> 100000	5.82
O=C(Nc1ccc(Oc2cccnc2)cc1)C1CCN(Cc2cc3ccccc3o2)CC1	6.44	> 100000	5.82
CCN1CCN(c2cc(C)c(C#N)c3nc4ccccc4n23)CC1	6.10	> 100000	5.82

Compound	pEC50 [1]	CC50 [2] [nM]	pEC50 [3]
CCOC(=O)C1=C(c2ccccc2)N=c2sc(=Cc3cccnc3)c(=O)n2C1c1c(OC)ccc2ccccc12 (stereo unspecified)	5.38	> 100000	5.81
COc1ccc(C2C(C(=O)OC3CCCC3)=C(C)NC3=C2C(=O)CC(C)(C)C3)cc1Br (stereo unspecified)	5.15	> 100000	5.81
COc1cccc(CNC(=O)C2CNCC2c2ccc(C(F)(F)F)cc2)c1 (stereo unspecified)	6.40	> 7220	6.96
COc1ccc2c(C)nc(NC(=N)N)nc2c1	6.38	66400	5.99
CC(C)CCNC(=O)CN1C(=O)c2cccnc2Oc2ccccc21	5.39	> 100000	5.82
O=C(Nc1ccccc1C(F)(F)F)N1CCC(N2CCCCC2)CC1	< 5.02	> 100000	5.82
C/C(=C\c1csc(C)n1)[C@@H]1C[C@@H]2O[C@@H]2CCC[C@H](C)C(O)[C@@H](C)C(=O)C(C)(C)[C@@H](O)CC(=O)O1 (stereo partly specified)	5.99	> 10000	6.81
Cc1cc2c(cc1C)NC(c1ccc(Cl)c(F)c1)C1=C(CC(C)(C)CC1=O)N2 (stereo unspecified)	5.97	64500	6.00
N=c1c2c(n(CCc3ccccc3)c3c1CCC3)CCCC2	7.23	15300	6.63
Cc1ccc(NC(=O)c2cc(C(=O)c3cc(Cl)ccc3O)cn(-c3ccc(C)cc3C)c2=O)c(C)c1	6.03	59000	6.05
COc1ccccc1N1CCN(c2ccc(NC(=O)c3ccc(F)cc3)cc2C(=O)N2CCCC2)CC1	< 5.90	> 10000	6.83
COC(=O)[C@@H]1C[C@@H](NC(=O)c2ccc(OC)cc2OC)CN1Cc1cccc2ccccc12	5.33	> 100000	5.83
CCOc1ccc(NC(=O)C(C)CSc2nc3ccc(NC(=O)CC)cc3s2)cc1 (stereo unspecified)	< 4.90	> 100000	5.83
Cc1cc(C)n(-c2ccc(NC(=O)C3CCN(Cc4ccncc4)CC3)cc2)n1	5.89	> 100000	5.83
CC(=O)N(C1=C(N2CCOCC2)C(=O)c2ccccc2C1=O)c1ccc(Cl)c(Cl)c1	6.66	12200	6.72
COc1cc(C2c3[nH]c4ccccc4c3C[C@@H]3C(=O)N(CCc4ccccc4)CC(=O)N23)cc(OC)c1OC (stereo partly specified)	6.30	> 10800	6.79
CC(=O)N1c2ccc(C)cc2C(C)(c2ccccc2)CC1(C)C (stereo unspecified)	6.11	45400	6.17
c1cc2c(cc1Nc1c3c(nc4nncn14)CCC3)OCCO2	5.53	> 100000	5.83
O=C(Nc1ccc(NC(=O)c2ccc(C3=NCCCN3)cc2)cc1)Nc1ccc(C2=NCCCN2)cc1	6.94	> 10000	6.83
c1ccc(C[n+]2ccc(-c3nc4ccccc4s3)cc2)cc1	5.73	> 100000	5.83
CCN(CC)c1ccc(N=Cc2ccccc2[N+](=O)[O-])cc1	6.24	27700	6.39
CCOc1ccc2[nH]c(=O)c(CN(CCN(CC)CC)C(=S)NCCCN(CC)CC)cc2c1	5.25	> 100000	5.83
CC1CCN(Cc2c(O)ccc3cc(-c4nc5ccccc5s4)c(=O)oc23)CC1	< 4.90	> 100000	5.83

Compound	pEC50 [1]	CC50 [2] [nM]	pEC50 [3]
Cc1ccn2c(NC(C)(C)CC(C)(C)C)c(-c3ccccc3OC(=O)c3ccc4ccccc4c3)nc2c1	6.14	> 10000	6.82
CCOC(=O)c1c(C)n(-c2ccccc2)c2ccc(OC(=O)c3ccccc3NC(=O)CC)cc12	5.97	> 100000	5.81
Cn1nc(C(F)(F)F)c(-c2ccc(F)cc2)c1NC(=O)Nc1ccc(F)cc1F	6.54	29200	6.35
CC1=NOC(=O)C1=Cc1cccs1	< 5.08	49700	6.11
CCCN(CCC)CCNC(=O)c1cc2c(-c3ccc(Cl)cc3)nn(C)c2s1	6.60	45800	6.15
CNC1=C(N(C(C)=O)c2ccc(Br)cc2)C(=O)c2ccccc2C1=O	6.79	> 10000	6.81
CCCCCCc1ccc(C(=O)NCCCCNc2ccnc3cc(Cl)ccc23)cc1	6.62	> 10800	6.77
CN(C)c1ccc(C=C2C(=O)NC(=O)N(Cc3ccccc3Cl)C2=O)cc1	< 4.90	> 100000	5.81
COc1ccc(C2=Nc3cc(C(=O)NCCN4CCOCC4)ccc3CN2C(C)C)cc1	5.28	> 100000	5.82
Cc1cc(C)cc(NC2=C(c3ccccc3)C(=O)c3ccccc32)c1	5.74	> 100000	5.82
CCCC(=O)N(C/C=C/c1ccccc1OC)CCN1CCN(C(=O)Nc2cccc(C)c2)CC1	< 5.90	> 10000	6.83
Cc1ccc(C(C(=O)NC2CCCCC2)N(C(=O)c2ccc(-c3ccccc3)[nH]2)c2ccc(C3CCCCC3)cc2)o1 (stereo unspecified)	5.93	> 100000	5.83
CC(=O)C1C(=O)c2c(cccc2[N+](=O)[O-])C1=Nc1ccccc1C (stereo unspecified)	6.19	51700	6.11
c1ccc(C2=Nc3ccccc3C(c3ccccc3)(c3ccccc3)N2)cc1	6.12	39400	6.23
CC1(C)C2CCC1(C)C(OCC[N+]1(Cc3ccccc3)CCCC1)C2 (stereo unspecified)	6.79	12700	6.71
O=C(NCCCCNc1ccnc2cc(Cl)ccc12)C1CCCCC1	6.51	> 13300	6.70
COc1cc(CNc2ccc(N3CCCCC3)cc2)cc(Cl)c1OCc1ccc(F)cc1	5.52	> 100000	5.81
Cc1ccc(NC(=O)c2sc3nc4c(c(-c5cccs5)c3c2N)CCCCC4)cc1	5.25	> 100000	5.81
Cc1ccn2c(NC(C)(C)CC(C)(C)C)c(-c3ccccc3OS(=O)(=O)CC34CCC(CC3=O)C4(C)C)nc2c1 (stereo unspecified)	5.87	> 10000	6.83
Cc1cn2c3ccccc3n(CCN3CCCC3)c2n1	6.00	60500	6.05
COC(=O)c1sc2nc(CN3CCCC(C)C3)ccc2c1NC(=O)c1ccc(C)s1 (stereo unspecified)	5.74	> 100000	5.81
